According to patent publication US9862748B2, “Peptide compounds and methods of production and use thereof” (priority 2012, dated 2018):
Square brackets hold non-standard residues; d marks the D form. Peptide text beside a SMILES is read from it. AEEA = NCCOCCOCC(=O)O

B1: CAP37: cationic antimicrobial protein of Mr 37 kDa; recombinant CAP37 produced in human embryonic kidney (HEK) 293 cells (protein)
chain: IVGGRKARPRQFPFLASIQNQGRHFCGGALIHARFVMTAASCFQSQNPGVSTVVLGAYDLRRRERQSRQTFSISSMSENGYDPQQNLNDLMLLQLDREANLTSSVTILPLPLQNATVEAGTRCQVAGWGSQRSGGRLSRFPRFVNVTVTPEDQCRPNNVCTGVLTRRGGICNGDGGTPLVCEGLAHGVASFSLGPCGRGPDFFTRVALFRDWIDGVLNNPGP

Tests used:
[1] = system: RAW264.7 cells; experiment: LPS neutralization: TNF-α release from LPS-stimulated RAW264.7 cells; format: cell-based, mouse
Description: (§1) The well-characterized response of RAW264.7 macrophage cells was used to produce tumor necrosis-factor-alpha (TNF-α) in response to LPS to determine whether the peptides could dampen the release of this cytokine. […] Importantly, pre-treatment (3 hours prior to LPS addition) as well as post-treatment of the RAW264.7 cells (3 hours post LPS addition) with peptide dampened the cytokine release. […] The finding that the novel peptides bind and neutralize the effect of Pseudomonas LPS is of critical importance since this ensures that the novel therapeutic peptide compounds described herein will not only kill the bacteria, but will also neutralize the LPS endotoxin released by the bacteria which plays such an important role in the rapid progression of sepsis.
(§2) BCC01-5RMP (SEQ ID NO: 21), BCC02-5RMP (SEQ ID NO: 22), and BCC03-5RMP (SEQ ID NO: 23) were tested for their ability to bind lipopolysaccharide (LPS) using the limulus amebocyte lysate method (LAL). […] There was no statistical difference in their ability to bind LPS using the LAL technique. The ability of the peptides to neutralize LPS was assessed by determining their ability to attenuate the release of tumor necrosis factor-alpha (TNF-α) from LPS-stimulated RAW264.7 cells (a mouse macrophage cell line). […] No significant differences were observed between the three peptides to neutralize LPS as measured by cytokine release.

[2] = system: Acinetobacter baumannii ATCC® BAA-747™; format: cell-based; details: starting inoculum 1×10^6 CFU/ml; 60 to 180 minute incubation
Description: (§3) In vitro bactericidal activity: The three peptide compounds BCC01-5RMP (SEQ ID NO: 21), BCC02-5RMP (SEQ ID NO: 22), and BCC03-5RMP (SEQ ID NO: 23) were assayed for in vitro bactericidal activity against Pseudomonas aeruginosa, Escherichia coli, Salmonella typhimurium, and Acinetobacter baumannii. The starting inoculum for all experiments was 1×10^6 colony forming units (CFU)/ml. The CFU remaining at the end of 60 to 180 minute incubation was determined, and the data plotted as a log reduction in CFU/ml.
For FIGS. 10-13, in vitro bactericidal assays were performed using a starting inoculum of 1×10^6 CFU/ml of the bacterial suspension. The CFU remaining at the end of the 60-180 minute incubation was determined, and the data was plotted as log reduction in CFU/ml.
In particular, each of the test peptides (CAP37 peptides 120-146WR, 120-146WH, and 95-122 (SEQ ID NOs: 30, 31, and 26, respectively)) was used at 25, 12.5, 6.25, and 3.12 μM. Gentamicin was used at 4 μg/ml. 1×10^6/ml Acinetobacter baumannii ATCC® BAA-747™ or Pseudomonas aeruginosa ATCC® 27853™ (American Type Culture Collection, Manassas, Va.) were incubated with the peptides, negative buffer control (tryptone saline), and positive control gentamicin at pH 5.5 or 7.2. A 60 minute incubation was used for Acinetobacter baumannii ATCC® BAA-747™, while a 180 minute incubation was used for Pseudomonas aeruginosa ATCC® 27853™. 50 μl aliquots were plated out on agar plates and incubated overnight. Colony forming units were counted after overnight incubation and CFU/ml calculated.

[3] = system: Pseudomonas LPS; experiment: LPS binding, Limulus Amebocyte Lysate (LAL) assay
Description: as §1, §2

[4] = system: Salmonella typhimurium; experiment: In vitro bactericidal assay; format: cell-based
Description: as §3

[5] = system: Pseudomonas clinical isolate B64; experiment: BIOSCREEN C growth assay / MIC, antibiotic in combination with peptide; format: cell-based, P. aeruginosa
Description: The peptide and antibiotics were set up in the wells of the microtiter plate at starting ratios of MIC equivalents of antibiotic:peptide at 3:1, 1:1, and 1:3. They were serially diluted to concentrations well below suboptimal/sublethal levels of the antibiotic and peptide. The organism was added (1×10^5 CFU/well), the BIOSCREEN C™ assay (Growth Systems USA, Piscataway, N.J.) was performed, and data was collected over 24 hours.

[6] = system: human corneal epithelial cell (HCEC); experiment: HCEC chemotaxis, modified Boyden chemotaxis chamber assay; format: cell-based; details: 120-146QH 10^−4 to 10^−10 M; 120-146QR 10^−6 and 10^−8 M; HB-EGF 50 ng/ml; rCAP37 250 ng/ml; 3 hours
Description: The effect of buffer control (0.1% BSA in Gey's buffer), heparin binding-epidermal growth factor (HB-EGF, 50 ng/ml), recombinant CAP37 (rCAP37, 250 ng/ml), 120-146QH ([…], 10^−10M, 10^−8M, 10^−4M, and 10^−4M,) and 120-146QR (10^−10M, 10^−8M, 10^−6M, and 10^−4M) on HCEC chemotaxis was determined by the modified Boyden chemotaxis chamber method. HCEC chemotaxis was measured in response to HB-EGF, rCAP37, and peptides 120-146QH (SEQ ID NO: 29) and 120-146QR (SEQ ID NO: 28) after incubation for 3 hours at 37° C. Chemotaxis is expressed as a percent migration. The buffer control (no chemoattractant) is arbitrarily assigned the value of 100% migration. Data are expressed as means±SEM and are calculated from 6 observations for each test point. **P<0.01 by Wilcoxon signed-rank test as compared to controls.
Chemotaxis assays were performed using the modified Boyden chemotaxis chamber assay. Peptide 120-146QH was used at 10^−4M, 10^−6M, 10^−8 M, 10^−10 M, and 10^−12M, and peptide 120-146QR was used at 10^−4M, 10^−6M, 10^−8 M, and 10^−10 M.

[7] = system: HCEC monolayers; experiment: In vitro scratch assay of wound closure; format: cell-based, human
Description: An in vitro scratch assay was used in order to determine the ability of rCAP37 to facilitate corneal wound healing. Human corneal epithelial cells were cultured as described above until they reached a confluent monolayer. Each monolayer was scratched using a 10 μl pipette tip to create two perpendicular lines. Monolayers were treated with heparin binding-epidermal growth factor (HB-EGF, 250 ng/ml; Becton Dickinson), rCAP37 (25-2000 ng/ml), or basal KSFM (Gibco). Wound closure was monitored at 0, 18, 24, and 48 hours utilizing a camera-equipped inverted microscope (TE2000-E; Nikon, Melville, N.Y.). Time-lapse images of in vitro wound closure were obtained using a camera-equipped inverted microscope (TE2000-E; Nikon) from 0-18 hours. HCEC monolayers were treated with HB-EGF, rCAP37, and basal KSFM as described above. The width of each scratch was quantitated using ImageJ software (US National Institutes of Health, Bethesda, Md.). Results are presented as the percentage of wound closure.

[8] = system: mouse cornea (corneal epithelial abrasion); experiment: In vivo model of corneal wound healing
Description: The in vivo model of wound healing was carried out using a disposable biopsy punch (2 mm, Miltex, York, Pa.) to demarcate the mouse cornea and a 0.5 mm burr using the AlgerBrush II (The Alger Company, Inc., Lago Vista, Tex.) to remove the corneal epithelium.
Mice were anesthetized using ketamine (100 mg/kg; Bionichepharma, LLC., St. Lake Forrest, Ill.) and xylazine ([…]; Rompun; Bayer Corp., Shawnee Mission, Kans.), and the right cornea was wounded as follows. A disposable biopsy punch (2 mm, Miltex, York, Pa.) was used to demarcate the mouse cornea. The corneal epithelium was carefully removed within the 2 mm demarcated area with a 0.5 mm burr using the AlgerBrush II (The Alger Company, Inc., Lago Vista, Tex.). The corneal abrasions were treated at 0 and 16 hours with HB-EGF (250 ng/ml), rCAP37 (250 ng/ml), or vehicle control (0.9% sodium chloride, pH 5.5, Baxter, Deerfield, Ill.). Corneal abrasions were visualized using sterile fluorescein sodium ophthalmic strips USP (FLUORETS®, Chauvin Laboratory, Aubenas, France) dampened with sterile PBS. Images were taken at 0, 16, 24, and 48 hours immediately following fluorescein staining using a surgical microscope equipped with a camera (Carl Zeiss OPMI VISU 140, Carl Zeiss Surgical, Inc., Oberkochen, Germany). The areas of the open wound were quantitated using ImageJ software (US National Institutes of Health), and the results were reported as the percentage of wound closure.
Whole mouse eyes were collected for histology at 0, 6, 16, 24, and 48 hours post wounding and were immediately placed in Prefer fixative (Anatech LTD., Battle Creek, Mich.) for 20 minutes before being transferred to 70% ethanol. Tissues were paraffin-embedded and cut at a thickness of 5 μm, mounted on SUPERFROSTPLUS® slides (Statlab Medical Products, Lewisville, Tex.), and subsequently deparaffinized, rehydrated, and washed in deionized water. Sections were stained with hematoxylin (Leica Microsystems, Buffalo Grove, Ill.) and rinsed twice in deionized water before being washed in Blue Buffer (Leica Microsystems). The sections were finally washed in deionized water and 95% ethanol prior to being counterstained with eosin (Leica Microsystems). Sections were dehydrated in ethanol and cleared in xylene.

[9] = 250 ng/ml topical at 0 and 16 hours

Molecule | release of TNF-α in response to Pseudomonas LPS [1] | activity against Acinetobacter baumannii [2] | binding of Pseudomonas LPS (LAL) [3] | activity against Salmonella typhimurium [4] | effect of added peptide on sensitivity of the bacterium to Cefotaxime ([5]; 3.04 μg/ml peptide with Cefotaxime 2.81 μg/ml, P=0.0143) | effect of added peptide with Levofloxacin, Fractional area (FA) ([5]; 3.04 μg/ml peptide with Levofloxacin 3.6 μg/ml) | effect of added peptide on killing by Ciprofloxacin ([5]; 4.05 μg/ml peptide with […] Ciprofloxacin, P=0.0003) | effect of added peptide on the killing effect of Cefotaxime ([5]; 0.34 and 1.0 μg/ml peptide with Cefotaxime 2.81 μg/ml) | HCEC migration versus buffer control [6] | percentage wound closure in vitro ([7]; 250 ng/ml, at 18 hours) | percentage wound closure in vitro ([7]; 500 ng/ml) | re-epithelialization at 24 hours versus vehicle (H&E histology) ([8]; 250 ng/ml) | wound closure at 16 hours [8, 9] | wound closure at 24 hours [8, 9]
CC[C@H](C)[C@H](NC(=O)[C@H](CC(C)C)NC(=O)[C@H](C)NC(=O)CNC(=O)CNC(=O)[C@H](CS)NC(=O)[C@H](Cc1ccccc1)NC(=O)[C@H](Cc1c[nH]cn1)NC(=O)[C@H](CCCNC(=N)N)NC(=O)CNC(=O)[C@H](CCC(N)=O)NC(=O)[C@H](CC(N)=O)NC(=O)[C@H](CCCNC(=N)N)NC(=O)[C@H](CCCNC(=N)N)NC(=O)[C@H](CCCNC(=N)N)NC(=O)[C@H](CCCNC(=N)N)NC(=O)COCCOCCNC(=O)COCCOCCN)C(=O)N[C@@H](Cc1c[nH]cn1)C(=O)N[C@@H](C)C(=O)N[C@@H](CCCNC(=N)N)C(=O)N[C@@H](Cc1ccccc1)C(=O)N[C@H](C(=O)N[C@@H](CCSC)C(=O)N[C@H](C(=O)N[C@@H](C)C(=O)N[C@@H](C)C(=O)N[C@@H](CO)C(=O)N[C@@H](CS)C(=O)N[C@@H](Cc1ccccc1)C(=O)N[C@@H](CCC(N)=O)C(=O)N[C@@H](CCCNC(=N)N)C(=O)O)[C@@H](C)O)C(C)C [BCC01-5RMP] (H-[AEEA][AEEA]RRRRNQGRHFCGGALIHARFVMTAASCFQR-OH; N-terminus and C-terminus assumed) | attenuate the release of TNF-α | most active | bound Pseudomonas LPS | strong, but lesser activity |  |  |  |  |  |  |  |  |  | 
CC[C@H](C)[C@H](NC(=O)[C@H](CC(C)C)NC(=O)[C@H](C)NC(=O)CNC(=O)CNC(=O)[C@H](CO)NC(=O)[C@H](Cc1ccccc1)NC(=O)[C@H](Cc1c[nH]cn1)NC(=O)[C@H](CCCNC(=N)N)NC(=O)CNC(=O)[C@H](CCC(N)=O)NC(=O)[C@H](CC(N)=O)NC(=O)[C@H](CCCNC(=N)N)NC(=O)[C@H](CCCNC(=N)N)NC(=O)[C@H](CCCNC(=N)N)NC(=O)[C@H](CCCNC(=N)N)NC(=O)COCCOCCNC(=O)COCCOCCN)C(=O)N[C@@H](Cc1c[nH]cn1)C(=O)N[C@@H](C)C(=O)N[C@@H](CCCNC(=N)N)C(=O)N[C@@H](Cc1ccccc1)C(=O)N[C@H](C(=O)N[C@@H](CCSC)C(=O)N[C@H](C(=O)N[C@@H](C)C(=O)N[C@@H](C)C(=O)N[C@@H](CO)C(=O)N[C@@H](CS)C(=O)N[C@@H](Cc1ccccc1)C(=O)N[C@@H](CCC(N)=O)C(=O)N[C@@H](CCCNC(=N)N)C(=O)O)[C@@H](C)O)C(C)C [BCC02-5RMP] (H-[AEEA][AEEA]RRRRNQGRHFSGGALIHARFVMTAASCFQR-OH; N-terminus and C-terminus assumed) | attenuate the release of TNF-α | most active | bound Pseudomonas LPS | strong, but lesser activity | now sensitive | shows significance | significantly affected killing | no statistical effect |  |  |  |  |  | 
B1 |  |  |  |  |  |  |  |  | significant increase in migration | ~71% | approximately 62% | greatly accelerated | 71% | 83%
